Test results taken from patent US20230398130A1, “METHODS AND COMPOSITIONS FOR DIFFERENTIATING STEM CELLS” (Massachusetts Institute of Technology, priority 2020, published 2023).

Assays:
ISC-enriched organoids [1] = experiment: Primary screen, 384-well 2.5-D organoid differentiation (ENR+CD, 6 days): basal lysozyme secretion (LYZ.NS); type: cell-based, murine; conditions: for Dose.FC.LYZ.NS: FC vs plate median; for SSMD.LYZ.NS: strictly standardized mean difference; for Dose.FC.LYZ.NS (log 2 fold change, basal lysozyme secretion): vs plate median
Description: (§1) High-throughput screening.

ISC-enriched organoids [2] = experiment: Primary screen, 384-well 2.5-D organoid differentiation (ENR+CD, 6 days): carbachol-induced lysozyme secretion (LYZ.S); type: cell-based, murine; conditions: for Dose.FC.LYZ.S: FC vs plate median; for Z.LYZ.S: standard z score; for SSMD.LYZ.S: strictly standardized mean difference; for Dose.FC.LYZ.S (log 2 fold change, carbachol-induced lysozyme secretion): vs plate median
Description: as §1

ISC-enriched organoids [3] = experiment: Primary screen, 384-well 2.5-D organoid differentiation (ENR+CD, 6 days, Target Selective Inhibitor Library, vs whole-plate median): ATP (CellTiter-Glo 3D, CTG); conditions: for Dose.FC.CTG: FC vs plate median; for SSMD.CTG: strictly standardized mean difference; for Dose.FC.CTG (log 2 fold change, ATP): vs plate median
[4] = Dose 0.08 uM, primary screen, standard z score
[5] = Dose 0.40 uM, primary screen, standard z score
[6] = Dose 2.00 uM, primary screen, standard z score
[7] = Dose 10.00 uM, primary screen, standard z score
[8] = primary screen, 1st of the 4 dose lines of the treatment (dose not given)
[9] = primary screen, 2nd of the 4 dose lines of the treatment (dose not given)
[10] = primary screen, 3rd of the 4 dose lines of the treatment (dose not given)
[11] = primary screen, 4th of the 4 dose lines of the treatment (dose not given)
[12] = Dose 0.08 uM, standard z score of FC
[13] = Dose 0.40 uM, standard z score of FC
[14] = Dose 2.00 uM, standard z score of FC
[15] = Dose 10.00 uM, standard z score of FC

KX2-391
Dose.FC.LYZ.NS (ISC-enriched organoids [1]; Dose 0.08 uM, primary screen): −0.283 log 2 fold change | Z.LYZ.NS (ISC-enriched organoids [1]; [4]): −2.468 | Dose.FC.LYZ.NS (ISC-enriched organoids [1]; Dose 0.40 uM, primary screen): −0.292 log 2 fold change | Z.LYZ.NS (ISC-enriched organoids [1]; [5]): −2.546 | Dose.FC.LYZ.NS (ISC-enriched organoids [1]; Dose 2.00 uM, primary screen): −0.251 log 2 fold change | Z.LYZ.NS (ISC-enriched organoids [1]; [6]): −2.188 | Dose.FC.LYZ.NS (ISC-enriched organoids [1]; Dose 10.00 uM, primary screen): −0.286 log 2 fold change | Z.LYZ.NS (ISC-enriched organoids [1]; [7]): −2.494 | SSMD.LYZ.NS (ISC-enriched organoids [1]; [8]): −2.177 | SSMD.LYZ.NS (ISC-enriched organoids [1]; [9]): −1.855 | SSMD.LYZ.NS (ISC-enriched organoids [1]; [10]): −1.701 | SSMD.LYZ.NS (ISC-enriched organoids [1]; [11]): −2.061 | Dose.FC.LYZ.S (ISC-enriched organoids [2]; Dose 0.08 uM, primary screen): −0.396 log 2 fold change | Dose.FC.LYZ.S (ISC-enriched organoids [2]; Dose 0.40 uM, primary screen): −0.380 log 2 fold change | Dose.FC.LYZ.S (ISC-enriched organoids [2]; Dose 2.00 uM, primary screen): −0.424 log 2 fold change | Dose.FC.LYZ.S (ISC-enriched organoids [2]; Dose 10.00 uM, primary screen): −0.419 log 2 fold change | Z.LYZ.S (ISC-enriched organoids [2]; [8]): −2.561 | Z.LYZ.S (ISC-enriched organoids [2]; [9]): −2.455 | Z.LYZ.S (ISC-enriched organoids [2]; [10]): −2.741 | Z.LYZ.S (ISC-enriched organoids [2]; [11]): −2.709 | SSMD.LYZ.S (ISC-enriched organoids [2]; [8]): −2.252 | SSMD.LYZ.S (ISC-enriched organoids [2]; [9]): −1.641 | SSMD.LYZ.S (ISC-enriched organoids [2]; [10]): −1.898 | SSMD.LYZ.S (ISC-enriched organoids [2]; [11]): −2.140 | Dose.FC.CTG (ISC-enriched organoids [3]; Dose 0.08 uM, primary screen): −0.752 log 2 fold change | Z.CTG (ISC-enriched organoids [3]; [4]): −1.796 | Dose.FC.CTG (ISC-enriched organoids [3]; Dose 0.40 uM, primary screen): −1.251 log 2 fold change | Z.CTG (ISC-enriched organoids [3]; [5]): −2.989 | Dose.FC.CTG (ISC-enriched organoids [3]; Dose 2.00 uM, primary screen): −1.983 log 2 fold change | Z.CTG (ISC-enriched organoids [3]; [6]): −4.737 | Dose.FC.CTG (ISC-enriched organoids [3]; Dose 10.00 uM, primary screen): −1.414 log 2 fold change | Z.CTG (ISC-enriched organoids [3]; [7]): −3.377 | SSMD.CTG (ISC-enriched organoids [3]; [8]): −2.473 | SSMD.CTG (ISC-enriched organoids [3]; [9]): −2.845 | SSMD.CTG (ISC-enriched organoids [3]; [10]): −2.822 | SSMD.CTG (ISC-enriched organoids [3]; [11]): −1.255

CCN1CCC[C@H]1CNC(=O)c1cc(S(N)(=O)=O)ccc1OC [Levosulpiride]
SSMD.LYZ.NS (ISC-enriched organoids [1]; [8]): 0.092 | SSMD.LYZ.NS (ISC-enriched organoids [1]; [9]): 0.226 | SSMD.LYZ.NS (ISC-enriched organoids [1]; [10]): 0.501 | SSMD.LYZ.NS (ISC-enriched organoids [1]; [11]): −0.195 | Z.LYZ.S (ISC-enriched organoids [2]; [8]): −0.108 | Z.LYZ.S (ISC-enriched organoids [2]; [9]): 0.830 | Z.LYZ.S (ISC-enriched organoids [2]; [10]): 0.800 | Z.LYZ.S (ISC-enriched organoids [2]; [11]): −0.168 | SSMD.LYZ.S (ISC-enriched organoids [2]; [8]): −0.076 | SSMD.LYZ.S (ISC-enriched organoids [2]; [9]): 0.774 | SSMD.LYZ.S (ISC-enriched organoids [2]; [10]): 0.531 | SSMD.LYZ.S (ISC-enriched organoids [2]; [11]): −0.154 | Z.CTG (ISC-enriched organoids [3]; [4]): −0.102 | Z.CTG (ISC-enriched organoids [3]; [5]): −0.015 | Z.CTG (ISC-enriched organoids [3]; [6]): 0.074 | Z.CTG (ISC-enriched organoids [3]; [7]): 0.215 | SSMD.CTG (ISC-enriched organoids [3]; [8]): −0.129 | SSMD.CTG (ISC-enriched organoids [3]; [9]): −0.019 | SSMD.CTG (ISC-enriched organoids [3]; [10]): 0.087 | SSMD.CTG (ISC-enriched organoids [3]; [11]): 0.297

CCCCCCCCc1ccc(CCC(N)(CO)CO)cc1.Cl [Fingolimod (FTY720) HCl]
Dose.FC.LYZ.NS (ISC-enriched organoids [1]; Dose 0.08 uM, ENR+CD, 6 days): −0.054 log 2 fold change | Z.LYZ.NS (ISC-enriched organoids [1]; [12]): −0.471 | Dose.FC.LYZ.NS (ISC-enriched organoids [1]; Dose 0.40 uM, ENR+CD, 6 days): 0.071 log 2 fold change | Z.LYZ.NS (ISC-enriched organoids [1]; [13]): 0.616 | Dose.FC.LYZ.NS (ISC-enriched organoids [1]; Dose 2.00 uM, ENR+CD, 6 days): 0.021 log 2 fold change | Z.LYZ.NS (ISC-enriched organoids [1]; [14]): 0.186 | Dose.FC.LYZ.NS (ISC-enriched organoids [1]; Dose 10.00 uM, ENR+CD, 6 days): −0.225 log 2 fold change | Z.LYZ.NS (ISC-enriched organoids [1]; [15]): −1.961 | Dose.FC.LYZ.S (ISC-enriched organoids [2]; Dose 0.08 uM, ENR+CD, 6 days): −0.046 log 2 fold change | Dose.FC.LYZ.S (ISC-enriched organoids [2]; Dose 0.40 uM, ENR+CD, 6 days): 0.077 log 2 fold change | Dose.FC.LYZ.S (ISC-enriched organoids [2]; Dose 2.00 uM, ENR+CD, 6 days): −0.060 log 2 fold change | Dose.FC.LYZ.S (ISC-enriched organoids [2]; Dose 10.00 uM, ENR+CD, 6 days): −0.362 log 2 fold change | Dose.FC.CTG (ISC-enriched organoids [3]; Dose 0.08 uM, ENR+CD, 6 days): −0.080 log 2 fold change | Z.CTG (ISC-enriched organoids [3]; [12]): −0.191 | Dose.FC.CTG (ISC-enriched organoids [3]; Dose 0.40 uM, ENR+CD, 6 days): 0.103 log 2 fold change | Z.CTG (ISC-enriched organoids [3]; [13]): 0.245 | Dose.FC.CTG (ISC-enriched organoids [3]; Dose 2.00 uM, ENR+CD, 6 days): −0.468 log 2 fold change | Z.CTG (ISC-enriched organoids [3]; [14]): −1.119 | Dose.FC.CTG (ISC-enriched organoids [3]; Dose 10.00 uM, ENR+CD, 6 days): −1.304 log 2 fold change | Z.CTG (ISC-enriched organoids [3]; [15]): −3.116

CCO.N#CC(=C(/N)Sc1ccccc1N)/C(C#N)=C(\N)Sc1ccccc1N [U0126-EtOH]
Z.LYZ.NS (standard z score) (ISC-enriched organoids [1]; dose 0.08 uM): 0.859 | Dose.FC.LYZ.NS (log 2 fold change, basal lysozyme secretion) (ISC-enriched organoids [1]; dose 0.08 uM): 0.099 | Z.LYZ.NS (standard z score) (ISC-enriched organoids [1]; dose 0.40 uM): 0.163 | Dose.FC.LYZ.NS (log 2 fold change, basal lysozyme secretion) (ISC-enriched organoids [1]; dose 0.40 uM): 0.019 | Z.LYZ.NS (standard z score) (ISC-enriched organoids [1]; dose 2.00 uM): −0.389 | Dose.FC.LYZ.NS (log 2 fold change, basal lysozyme secretion) (ISC-enriched organoids [1]; dose 2.00 uM): −0.045 | Z.LYZ.NS (standard z score) (ISC-enriched organoids [1]; dose 10.00 uM): −1.021 | Dose.FC.LYZ.NS (log 2 fold change, basal lysozyme secretion) (ISC-enriched organoids [1]; dose 10.00 uM): −0.117 | Dose.FC.LYZ.S (log 2 fold change, carbachol-induced lysozyme secretion) (ISC-enriched organoids [2]; dose 0.08 uM): 0.114 | Dose.FC.LYZ.S (log 2 fold change, carbachol-induced lysozyme secretion) (ISC-enriched organoids [2]; dose 0.40 uM): 0.075 | Dose.FC.LYZ.S (log 2 fold change, carbachol-induced lysozyme secretion) (ISC-enriched organoids [2]; dose 2.00 uM): −0.071 | Dose.FC.LYZ.S (log 2 fold change, carbachol-induced lysozyme secretion) (ISC-enriched organoids [2]; dose 10.00 uM): −0.165 | Z.CTG (standard z score) (ISC-enriched organoids [3]; dose 0.08 uM): −0.835 | Dose.FC.CTG (log 2 fold change, ATP) (ISC-enriched organoids [3]; dose 0.08 uM): −0.350 | Z.CTG (standard z score) (ISC-enriched organoids [3]; dose 0.40 uM): −1.227 | Dose.FC.CTG (log 2 fold change, ATP) (ISC-enriched organoids [3]; dose 0.40 uM): −0.514 | Z.CTG (standard z score) (ISC-enriched organoids [3]; dose 2.00 uM): −1.138 | Dose.FC.CTG (log 2 fold change, ATP) (ISC-enriched organoids [3]; dose 2.00 uM): −0.476 | Z.CTG (standard z score) (ISC-enriched organoids [3]; dose 10.00 uM): −1.887 | Dose.FC.CTG (log 2 fold change, ATP) (ISC-enriched organoids [3]; dose 10.00 uM): −0.790
